In ChEMBL document CHEMBL5338809, “Fragment-Based Discovery of Azocyclic Alkyl Naphthalenesulfonamides as Keap1-Nrf2 Inhibitors for Acute Lung Injury Treatment” (J Med Chem, 2023):
Values after ≈ are worked out from the molar mass of the structure shown. Each block holds one compound with its values, some of them ahead of it. Active and inactive are the calls of the source. The calls are words filed in the database; no cut-off is given here.

Key:
[1] = biological target: Keap1/Nrf2 (Homo sapiens) (UniProt Q16236+Q14145); assay: Binding affinity to human Keap1-Nrf2 protein-protein interaction assessed as dissociation constant (Kd2) incubated for 60 mins by fluorescent polarization assay
Keap1/Nrf2 (Homo sapiens), sequence (Q14145 whole entry, looked up): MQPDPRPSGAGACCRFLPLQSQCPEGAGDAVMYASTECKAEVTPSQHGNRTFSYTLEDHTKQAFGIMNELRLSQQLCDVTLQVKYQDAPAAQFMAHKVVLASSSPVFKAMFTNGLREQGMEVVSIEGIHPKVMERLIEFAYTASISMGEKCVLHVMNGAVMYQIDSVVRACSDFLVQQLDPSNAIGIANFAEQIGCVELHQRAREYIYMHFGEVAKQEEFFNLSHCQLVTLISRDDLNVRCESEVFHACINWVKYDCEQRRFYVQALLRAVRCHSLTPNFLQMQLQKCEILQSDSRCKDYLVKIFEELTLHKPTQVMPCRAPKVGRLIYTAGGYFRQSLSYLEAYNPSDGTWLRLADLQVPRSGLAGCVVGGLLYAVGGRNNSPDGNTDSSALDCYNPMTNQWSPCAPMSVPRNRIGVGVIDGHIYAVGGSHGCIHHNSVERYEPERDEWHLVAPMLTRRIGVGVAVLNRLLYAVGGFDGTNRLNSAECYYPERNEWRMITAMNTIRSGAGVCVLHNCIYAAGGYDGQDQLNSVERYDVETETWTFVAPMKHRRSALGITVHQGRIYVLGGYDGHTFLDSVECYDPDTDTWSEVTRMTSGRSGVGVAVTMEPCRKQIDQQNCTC
Keap1/Nrf2 (Homo sapiens), sequence (Q16236 whole entry, looked up): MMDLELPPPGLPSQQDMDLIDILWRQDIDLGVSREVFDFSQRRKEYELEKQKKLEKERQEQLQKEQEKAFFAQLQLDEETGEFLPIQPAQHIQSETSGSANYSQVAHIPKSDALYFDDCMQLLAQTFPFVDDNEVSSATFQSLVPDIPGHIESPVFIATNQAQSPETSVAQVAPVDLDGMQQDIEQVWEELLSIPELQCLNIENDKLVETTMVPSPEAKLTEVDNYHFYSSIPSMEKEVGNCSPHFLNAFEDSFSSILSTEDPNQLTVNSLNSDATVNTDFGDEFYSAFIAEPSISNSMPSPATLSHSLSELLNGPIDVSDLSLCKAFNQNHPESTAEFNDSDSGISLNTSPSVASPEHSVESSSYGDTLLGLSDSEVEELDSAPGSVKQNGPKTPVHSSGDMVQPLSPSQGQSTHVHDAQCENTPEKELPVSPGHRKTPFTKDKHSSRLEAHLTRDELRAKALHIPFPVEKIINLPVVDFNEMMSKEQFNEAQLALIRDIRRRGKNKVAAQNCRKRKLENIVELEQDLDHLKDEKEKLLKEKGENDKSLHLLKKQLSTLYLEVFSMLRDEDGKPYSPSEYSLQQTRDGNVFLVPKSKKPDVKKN

[2] = tested on: Peritoneal macrophage; assay: Antiinflammatory activity in mouse peritoneal macrophages assessed as reduction in LPS-induced IL6 level at 10 uM incubated for 4 hrs by ELISA method; assay type: functional, cell-based
[3] = tested on: Mus musculus; assay: (§1) Antiinflammatory activity in LPS-induced C57BL/6 mouse model of […] assessed as inhibition of TNFalpha expression in lung tissue at 2.5 to 10 mg/kg, ip pretreated with compound for 30 mins followed by LPS stimulation and measured after 6 hrs by qRT-PCR analysis; assay type: functional, organism-based; conditions: dose 2.5-10 mg/kg, time 390.0 min
[4] = tested on: Mus musculus; assay: Antiinflammatory activity in LPS-induced C57BL/6 mouse model of […] assessed as inhibition of IL1beta expression in lung tissue at 2.5 to 10 mg/kg, ip pretreated with compound for 30 mins followed by LPS stimulation and measured after 6 hrs by qRT-PCR analysis; assay type: functional, organism-based; conditions: dose 2.5-10 mg/kg, time 390.0 min
[5] = tested on: Mus musculus; assay: Antiinflammatory activity in LPS-induced C57BL/6 mouse model of […] assessed as inhibition of IL6 expression in lung tissue at 2.5 to 10 mg/kg, ip pretreated with compound for 30 mins followed by LPS stimulation and measured after 6 hrs by qRT-PCR analysis; assay type: functional, organism-based; conditions: dose 2.5-10 mg/kg, time 390.0 min
[6] = tested on: Mus musculus; assay: Antiinflammatory activity in LPS-induced C57BL/6 mouse model of […] assessed as inhibition of TNFalpha level in BALF administered intraperitoneally pretreated with compound for 30 mins followed by LPS stimulation and measured after 6 hrs by ELISA method; assay type: functional, organism-based; conditions: dose 2.5-10 mg/kg, route ip, time 390.0 min
[7] = tested on: Mus musculus; assay: Antiinflammatory activity in LPS-induced C57BL/6 mouse model of […] assessed as inhibition of IL1beta level in BALF administered intraperitoneally pretreated with compound for 30 mins followed by LPS stimulation and measured after 6 hrs by ELISA method; assay type: functional, organism-based; conditions: dose 2.5-10 mg/kg, route ip, time 390.0 min
[8] = tested on: Mus musculus; assay: Antiinflammatory activity in LPS-induced C57BL/6 mouse model of […] assessed as inhibition of IL6 level in BALF administered intraperitoneally pretreated with compound for 30 mins followed by LPS stimulation and measured after 6 hrs by ELISA method; assay type: functional, organism-based; conditions: dose 2.5-10 mg/kg, route ip, time 390.0 min
[9] = tested on: Mus musculus; assay: Antiinflammatory activity in LPS-induced C57BL/6 mouse model of […] assessed as Nrf2 nuclear translocation in lung tissue at 2.5 to 10 mg/kg, ip pretreated with compound for 30 mins followed by LPS stimulation and measured after 6 hrs by Western blotting analysis; assay type: functional, organism-based; conditions: dose 2.5-10 mg/kg, time 390.0 min
[10] = tested on: Mus musculus; assay: as §1, with “reduction in inflammatory cell infiltrations” for “inhibition of TNFalpha expression”, “hematoxylin and eosin staining method” for “qRT-PCR analysis”; assay type: functional, organism-based; conditions: dose 2.5-10 mg/kg, time 390.0 min
[11] = tested on: Mus musculus; assay: Antiinflammatory activity in LPS-induced C57BL/6 mouse model of […] assessed as reduction in bleeding points in lung tissue at 2.5 to 10 mg/kg, ip pretreated with compound for 30 mins followed by LPS stimulation and measured after 6 hrs by hematoxylin and eosin staining method; assay type: functional, organism-based; conditions: dose 2.5-10 mg/kg, time 390.0 min
[12] = tested on: Mus musculus; assay: Antiinflammatory activity in LPS-induced C57BL/6 mouse model of […] assessed as reduction in congestion in lung tissue at 2.5 to 10 mg/kg, ip pretreated with compound for 30 mins followed by LPS stimulation and measured after 6 hrs by hematoxylin and eosin staining method; assay type: functional, organism-based; conditions: dose 2.5-10 mg/kg, time 390.0 min
[13] = MRT (0 to 24 hrs) in Sprague-Dawley rat at 5 mg/kg, iv; assay type: ADME, organism-based; conditions: in vivo
[14] = MRT (0 to infinity) in Sprague-Dawley rat at 20 mg/kg, ip; assay type: ADME, organism-based; conditions: in vivo
[15] = Half life in Sprague-Dawley rat at 20 mg/kg, ip; assay type: ADME, organism-based; conditions: in vivo
[16] = Cmax in Sprague-Dawley rat at 20 mg/kg, ip; assay type: ADME, organism-based; parameters: dose 20 mg/kg, route ip; conditions: in vivo
[17] = Tmax in Sprague-Dawley rat at 20 mg/kg, ip; assay type: ADME, organism-based; conditions: in vivo
[18] = Half life in Sprague-Dawley rat at 5 mg/kg, iv; assay type: ADME, organism-based; conditions: in vivo
[19] = MRT (0 to infinity) in Sprague-Dawley rat at 5 mg/kg, iv; assay type: ADME, organism-based; conditions: in vivo
[20] = MRT (0 to 24 hrs) in Sprague-Dawley rat at 20 mg/kg, ip; assay type: ADME, organism-based; conditions: in vivo
[21] = AUC (0 to infinity) in Sprague-Dawley rat at 5 mg/kg, iv; assay type: ADME, organism-based; parameters: dose 5 mg/kg, route iv; conditions: in vivo
[22] = Cytotoxicity against mouse peritoneal macrophages assessed as reduction in cell viability incubated for 24 hrs by Cell titer-blue assay; assay type: toxicity, cell-based, Peritoneal macrophage
[23] = AUC (0 to 24 hrs) in Sprague-Dawley rat at 20 mg/kg, ip; assay type: ADME, organism-based; parameters: dose 20 mg/kg, route ip; conditions: in vivo
[24] = AUC (0 to 24 hrs) in Sprague-Dawley rat at 5 mg/kg, iv; assay type: ADME, organism-based; parameters: dose 5 mg/kg, route iv; conditions: in vivo
[25] = AUC (0 to infinity) in Sprague-Dawley rat at 20 mg/kg, ip; assay type: ADME, organism-based; parameters: dose 20 mg/kg, route ip; conditions: in vivo
[26] = Clearance in Sprague-Dawley rat at 20 mg/kg, ip; assay type: ADME, organism-based; conditions: in vivo
[27] = Clearance in Sprague-Dawley rat at 5 mg/kg, iv; assay type: ADME, organism-based; conditions: in vivo
[28] = Apparent volume of distribution in Sprague-Dawley rat at 20 mg/kg, ip; assay type: ADME, organism-based; conditions: in vivo
[29] = Apparent volume of distribution in Sprague-Dawley rat at 5 mg/kg, iv; assay type: ADME, organism-based; conditions: in vivo, read-out: Vz
[30] = tested on: Peritoneal macrophage; assay: Antiinflammatory activity in mouse peritoneal macrophages assessed as fold reduction in LPS-induced TNFalpha level at 10 uM incubated for 4 hrs by ELISA method; assay type: functional
[31] = Aqueous solubility of the compound in PBS at pH 2 at 2 mg incubated for 24 hrs by HPLC-UV analysis; assay type: physicochemical
[32] = Aqueous solubility of the compound in PBS at pH 7 at 2 mg incubated for 24 hrs by HPLC-UV analysis; assay type: physicochemical
[33] = Aqueous solubility of the compound in PBS at pH 7.4 at 2 mg incubated for 24 hrs by HPLC-UV analysis; assay type: physicochemical
[34] = Oral bioavailability in Sprague-Dawley rat; assay type: ADME, organism-based; conditions: in vivo

K [1]: 220 nM
Structure (SMILES): COc1ccc(S(=O)(=O)N(CC(N)=O)c2ccc(N(CC(N)=O)S(=O)(=O)c3ccc(NC(=O)[C@H]4CCN4)cc3)c3ccccc23)cc1 [listing 1 of 2 here]
Activity [2]: Active
inhibition [3]: Active
inhibition [4]: Active
inhibition [5]: Active
inhibition [6]: Dose-Dependent Effect
inhibition [7]: Dose-Dependent Effect
inhibition [8]: Dose-Dependent Effect
Activity [9]: Active
Activity [10]: Active
Activity [11]: Active
Activity [12]: Active

MRT last [13]: 2.83 h
MRT inf [14]: 1.97 h
half-life [15]: 5.75 h
Cmax [16]: 8.43 µg/mL
Tmax [17]: 0.38 h
half-life [18]: 12.7 h
MRT inf [19]: 9.67 h
MRT last [20]: 1.75 h
AUC(0-inf) [21]: 1.59 µg·h/mL
AUC(0-t) [23]: 11.2 µg·h/mL
AUC(0-t) [24]: 1.39 µg·h/mL
AUC(0-inf) [25]: 11.2 µg·h/mL
CL/F [26]: 1.91 L/h/kg
clearance [27]: 3.45 L/h/kg
Vz [28]: 16.24474 L/kg
Vd [29]: 60.5 L/kg
solubility at 24 h [31]: 0.601 mg/mL (≈ 883 µM)
solubility at 24 h [32]: 0.404 mg/mL (≈ 593 µM)
solubility at 24 h [33]: 0.216 mg/mL (≈ 318 µM)
Structure (SMILES): COc1ccc(S(=O)(=O)N(CC(N)=O)c2ccc(N(CC(N)=O)S(=O)(=O)c3ccc(NC(=O)[C@H]4CCN4)cc3)c3ccccc23)cc1 [listing 2 of 2 here]
CC50 at 24 h [22]: > 100 µM
fold change (FC) [30]: <=0.5

bioavailability [34]: 20%
Structure (SMILES): CCN1CCN(CCC(=O)Nc2ccc(S(=O)(=O)N(CC(N)=O)c3ccc(N(CC(N)=O)S(=O)(=O)c4ccc(OC)cc4)c4ccccc34)cc2)CC1.Cl
